Experiment [1] deals with T1, pseudo-kinase domain (JH2, amino-acids 536-812) of human V617F mutant JAK2 (Homo sapiens, UniProt O60674, F794H/V617F/W659A/W777A).
T1 construct: pseudo-kinase domain (JH2, amino-acids 536-812 with 3 surface mutations W659A, W777A, F794H); purchased BPS Bioscience 79498; host or cells: baculovirus expression system
The experiment in a line: JAK2 LanthaScreen JH2-V617F Binding Assay. Conditions: 1 hour at 25° C. The procedure, abridged:
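Serially diluted compounds are mixed with 0.26 nM protein, 50 nM fluorescent JAK2-JH2 tracer and 0.25 nM terbium-labelled streptavidin, then incubated 1 h at 25° C. LanthaScreen signal is read, and IC50 is fitted.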
(In general: In TR-FRET formats the signal depends on donor and acceptor labels being close together.)

In experiment [2] the target is T2, pseudo-kinase domain (JH2, amino-acids 536-812) of human Wild Type JAK2 (Homo sapiens, UniProt O60674, F794H/W659A/W777A).
T2 construct: pseudo-kinase domain (JH2, amino-acids 536-812 with 3 surface mutations W659A, W777A, F794H); purchased BPS Bioscience 79463; host or cells: baculovirus expression system
Briefly: JAK2 LanthaScreen JH2-WT Binding Assay. Particulars: 1 hour at 25° C. In outline: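 Compounds, serially diluted, were mixed with 0.145 nM JH2 domain, 50 nM tracer and 0.25 nM streptavidin-Tb cryptate, then incubated 1 hour at 25° C before LanthaScreen reading. Wells containing 2 mM ATP defined non-specific binding. Four-parameter dose-response curves gave IC50.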

Experiment [3] addresses T3, catalytic domain (JH1, amino acids 826-1132) of human JAK2 (Homo sapiens, UniProt O60674).
T3 construct: catalytic domain (JH1, amino acids 826-1132) of human JAK2; purchased Carna Biosciences 08-445-20N; host or cells: baculovirus expression system
The experiment in a line: JAK2 LanthaScreen JH1 Binding Assay. Conditions: 2 hours at 25° C. In outline: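 Reaction held 1.5 nM biotinylated FLAG-JAK2 JH1, 50 nM tracer and 0.5 nM streptavidin-Tb in pH 7.5 Tris buffer; 2 mM ATP defined nonspecific binding.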

Experiment [4] addresses T4, catalytic domain (JH1, amino acids 808-1132) of human JAK2 (Homo sapiens, UniProt O60674).
T4 construct: catalytic domain (JH1, amino acids 808-1132) of human JAK2; His (N); purchased BPS Bioscience 40450; host or cells: baculovirus expression system
The experiment in a line: JAK2 HTRF Enzyme Activity Assay. The format is biochemical. Particulars: ATP 30 μM, read-out: ENZ 30UMATP. The procedure, abridged:
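IC50 values come from a four-parameter fit of HTRF signal (Eu-PY20 antibody/streptavidin-APC, EDTA-quenched). Reaction: 0.015 nM N-His JAK2 catalytic domain (baculovirus), 500 nM biotin-peptide, 30 μM or 1 mM ATP, Tris pH 7.5 buffer, 60 min, 25° C.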

Counter-ions that a name gives are not always drawn.

T1 sequence (O60674 536-812 V617F/W659A/W777A/F794H): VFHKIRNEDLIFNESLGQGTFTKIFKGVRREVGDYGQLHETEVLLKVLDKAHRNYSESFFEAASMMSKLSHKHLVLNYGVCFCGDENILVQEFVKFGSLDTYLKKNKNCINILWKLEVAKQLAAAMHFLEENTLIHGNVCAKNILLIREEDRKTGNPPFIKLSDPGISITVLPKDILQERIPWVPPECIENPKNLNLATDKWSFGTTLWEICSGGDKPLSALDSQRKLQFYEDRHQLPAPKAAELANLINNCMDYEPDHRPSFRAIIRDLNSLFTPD
T2 sequence (O60674 536-812 W659A/W777A/F794H): as the sequence (O60674 536-812 V617F/W659A/W777A/F794H) above, with F82V counted along it
T3 sequence (O60674 826-1132): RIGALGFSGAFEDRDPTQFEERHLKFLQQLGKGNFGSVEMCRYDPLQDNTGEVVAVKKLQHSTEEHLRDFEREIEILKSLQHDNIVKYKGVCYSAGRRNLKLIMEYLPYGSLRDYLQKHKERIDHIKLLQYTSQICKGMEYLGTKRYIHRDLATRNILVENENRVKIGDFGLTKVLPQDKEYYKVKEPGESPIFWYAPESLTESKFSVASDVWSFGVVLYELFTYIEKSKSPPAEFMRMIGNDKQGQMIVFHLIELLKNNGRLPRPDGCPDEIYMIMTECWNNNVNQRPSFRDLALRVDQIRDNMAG
T4 sequence (O60674 808-1132): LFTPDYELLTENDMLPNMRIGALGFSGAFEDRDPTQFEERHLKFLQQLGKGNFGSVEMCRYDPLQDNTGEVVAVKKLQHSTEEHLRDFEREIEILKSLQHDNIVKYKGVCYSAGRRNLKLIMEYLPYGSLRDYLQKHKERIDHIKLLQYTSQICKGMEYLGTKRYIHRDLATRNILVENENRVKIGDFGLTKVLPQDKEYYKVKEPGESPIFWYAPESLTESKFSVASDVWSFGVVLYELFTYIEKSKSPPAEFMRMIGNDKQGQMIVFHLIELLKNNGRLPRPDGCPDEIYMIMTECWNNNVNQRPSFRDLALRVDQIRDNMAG

Take `CN1C(=O)C2(CCN(C3(CC#N)CCCC3)CC2)c2c1cnc1[nH]c(-c3cnn(C)c3)c(-c3ccc4c(cnn4C)c3)c21` [Example 73, 2-(1-(6-Methyl-1-(1-methyl-1H-indazol-5-yl)-2-(1-methyl-1H-pyrazol-4-yl)-7-oxo-6,7-dihydro-3H-spiro[dipyrrolo[2,3-b:3′,2′-d]pyridine-8,4′-piperidin]-1′-yl)cyclopentyl)acetonitrile, trifluoroacetate salt]: the IC50 was not above 100 nM in experiment [1], not above 100 nM in experiment [2], 100 to 500 nM in experiment [3] and 100 to 500 nM in experiment [4].

`CN1C(=O)C2(C=CN(C3(CC#N)CC3)C=C2)c2c1cnc1[nH]c(-c3cnn(C)c3)c(-c3ccc4c(cnn4C)c3)c21` [Example 74, 2-(1-(6-Methyl-1-(1-methyl-1H-indazol-5-yl)-2-(1-methyl-1H-pyrazol-4-yl)-7-oxo-6,7-dihydro-1′H,3H-spiro[dipyrrolo[2,3-b:3′,2′-d]pyridine-8,4′-pyridin]-1′-yl)cyclopropyl)acetonitrile, trifluoroacetate salt]: the IC50 in experiment [1] was not above 100 nM; in experiment [2], not above 100 nM; in experiment [3], 500 to 1250 nM; in experiment [4], 500 to 1250 nM.

For `CN1C(=O)C2(CCN(C(C)(C)c3c[nH]nn3)CC2)c2c1cnc1[nH]c(-c3cnn(C)c3)c(-c3ccc4c(cnn4C)c3)c21` [Example 76, 1′-(2-(1H-1,2,3-Triazol-4-yl)propan-2-yl)-6-methyl-1-(1-methyl-1H-indazol-5-yl)-2-(1-methyl-1H-pyrazol-4-yl)-3,6-dihydro-7H-spiro[dipyrrolo[2,3-b:3′,2′-d]pyridine-8,4′-piperidin]-7-one], the IC50 is not above 100 nM in experiment [1], not above 100 nM in experiment [2], 100 to 500 nM in experiment [3] and 100 to 500 nM in experiment [4].

As to `CN1C(=O)C2(CCN(C(C)(C)c3nnc[nH]3)CC2)c2c1cnc1[nH]c(-c3cnn(C)c3)c(-c3ccc4c(cnn4C)c3)c21` [Example 77, 1′-(2-(4H-1,2,4-Triazol-3-yl)propan-2-yl)-6-methyl-1-(1-methyl-1H-indazol-5-yl)-2-(1-methyl-1H-pyrazol-4-yl)-3,6-dihydro-7H-spiro[dipyrrolo[2,3-b:3′,2′-d]pyridine-8,4′-piperidin]-7-one], the IC50 in experiment [1] was not above 100 nM; in experiment [2], not above 100 nM; in experiment [3], 500 to 1250 nM; in experiment [4] it was 500 to 1250 nM.

For the molecule `[2H]C([2H])([2H])n1ncc2cc(-c3c(-c4cnn5c4CCC5)[nH]c4ncc5c(c34)C3(CCN(C4(CC#N)CCCC4)CC3)C(=O)N5C)ccc21` [Example 79, 2-(1-(2-(5,6-Dihydro-4H-pyrrolo[1,2-b]pyrazol-3-yl)-6-methyl-1-(1-(methyl-d3)-1H-indazol-5-yl)-7-oxo-6,7-dihydro-3H-spiro[dipyrrolo[2,3-b:3′,2′-d]pyridine-8,4′-piperidin]-1′-yl)cyclopentyl)acetonitrile], the IC50 in experiment [1] was not above 100 nM; in experiment [2], not above 100 nM; in experiment [3], more than 2500 nM; in experiment [4], 1250 to 2500 nM.

On to `COC(=O)N1CCC(CC#N)(N2CCC3(CC2)C(=O)N(C)c2cnc4[nH]c(-c5cnn(C)c5)c(-c5ccc6c(cnn6C)c5)c4c23)CC1` [Example 81, Methyl 4-(cyanomethyl)-4-(6-methyl-1-(1-methyl-1H-indazol-5-yl)-2-(1-methyl-1H-pyrazol-4-yl)-7-oxo-6,7-dihydro-3H-spiro[dipyrrolo[2,3-b:3′,2′-d]pyridine-8,4′-piperidin]-1′-yl)piperidine-1-carboxylate], for which the IC50 in experiment [1] was not above 100 nM; in experiment [2], not above 100 nM; in experiment [3] it was 500 to 1250 nM; in experiment [4], 500 to 1250 nM.

Take `CC(=O)NC12CC(N3CCC4(CC3)C(=O)N(C)c3cnc5[nH]c(-c6cnn(C)c6)c(-c6ccc7c(cnn7C)c6)c5c34)(C1)C2` [Example 82, N-(3-(6-Methyl-1-(1-methyl-1H-indazol-5-yl)-2-(1-methyl-1H-pyrazol-4-yl)-7-oxo-6,7-dihydro-3H-spiro[dipyrrolo[2,3-b:3′,2′-d]pyridine-8,4′-piperidin]-1′-yl)bicyclo[1.1.1]pentan-1-yl)acetamide]: the IC50 in experiment [1] was not above 100 nM; in experiment [2] it was not above 100 nM; in experiment [3], 100 to 500 nM; in experiment [4], 100 to 500 nM.

Regarding `COC(=O)N1CC2(N3CCC4(CC3)C(=O)N(C)c3cnc5[nH]c(-c6cnn(C)c6)c(-c6ccc7c(cnn7C)c6)c5c34)CC1C2` [Example 83, Methyl 4-(6-methyl-1-(1-methyl-1H-indazol-5-yl)-2-(1-methyl-1H-pyrazol-4-yl)-7-oxo-6,7-dihydro-3H-spiro[dipyrrolo[2,3-b:3′,2′-d]pyridine-8,4′-piperidin]-1′-yl)-2-azabicyclo[2.1.1]hexane-2-carboxylate], the IC50 was not above 100 nM in experiment [1], not above 100 nM in experiment [2], 1250 to 2500 nM in experiment [3] and 1250 to 2500 nM in experiment [4].

Turning to `CN1C(=O)C2(CCN(C(C)(C)C3CNC3)CC2)c2c1cnc1[nH]c(-c3cnn(C)c3)c(-c3ccc4c(cnn4C)c3)c21` [Example 84, 1′-(2-(Azetidin-3-yl)propan-2-yl)-6-methyl-1-(1-methyl-1H-indazol-5-yl)-2-(1-methyl-1H-pyrazol-4-yl)-3,6-dihydro-7H-spiro[dipyrrolo[2,3-b:3′,2′-d]pyridine-8,4′-piperidin]-7-one], the IC50 in experiment [1] was not above 100 nM; in experiment [2], not above 100 nM; in experiment [3], 500 to 1250 nM; in experiment [4] it was 100 to 500 nM.

Take `O=C(O)C(F)(F)F.[2H]C([2H])([2H])n1ncc2cc(-c3c(-c4ccc(CN5CCOCC5)cc4)[nH]c4ncc5c(c34)C3(CC4(CN(S(=O)(=O)CC)C4)C3)C(=O)N5C)ccc21` [Example 85, 1-(Ethylsulfonyl)-6″-methyl-1″-(1-(methyl-d3)-1H-indazol-5-yl)-2″-(4-(morpholinomethyl)phenyl)-3″,6″-dihydro-7″H-dispiro[azetidine-3,1′-cyclobutane-3′,8″-dipyrrolo[2,3-b:3′,2′-d]pyridin]-7″-one, trifluoroacetate salt]: the IC50 in experiment [1] is not above 100 nM; in experiment [2], not above 100 nM; in experiment [3], 1250 to 2500 nM; in experiment [4], 1250 to 2500 nM.

With `CCS(=O)(=O)N1CC2(C1)CC1(C2)C(=O)N(C)c2cnc3[nH]c(-c4cnn(C)c4)c(-c4ccc5c(cnn5C)c4)c3c21` [Example 86, l-(Ethylsulfonyl)-6″-methyl-1″-(1-methyl-1H-indazol-5-yl)-2″-(1-methyl-1H-pyrazol-4-yl)-3″,6″-dihydro-7″H-dispiro[azetidine-3,1′-cyclobutane-3′,8″-dipyrrolo[2,3-b:3′,2′-d]pyridin]-7″-one, trifluoroacetate salt], the IC50 was not above 100 nM in experiment [1], not above 100 nM in experiment [2], 500 to 1250 nM in experiment [3] and 500 to 1250 nM in experiment [4].

With `CCS(=O)(=O)N1CC2(C1)CC1(C2)C(=O)N(C)c2cnc3[nH]c(-c4cnn(CC5CC5)c4)c(-c4ccc5c(cnn5C)c4)c3c21` [Example 87, 2″-(1-(Cyclopropylmethyl)-1H-pyrazol-4-yl)-1-(ethylsulfonyl)-6″-methyl-1″-(1-methyl-1H-indazol-5-yl)-3″,6″-dihydro-7″H-dispiro[azetidine-3,1′-cyclobutane-3′,8″-dipyrrolo[2,3-b:3′,2′-d]pyridin]-7″-one, trifluoroacetate salt], the IC50 in experiment [1] was not above 100 nM; in experiment [2] it was not above 100 nM; in experiment [3], 1250 to 2500 nM; in experiment [4], 1250 to 2500 nM.

As for `CCS(=O)(=O)N1CC2(C1)CC1(C2)C(=O)N(C)c2cnc3[nH]c(-c4cnn(CCOC)c4)c(-c4ccc5c(cnn5C)c4)c3c21` [Example 88, 1-(Ethylsulfonyl)-2″-(1-(2-methoxyethyl)-1H-pyrazol-4-yl)-6″-methyl-1″-(1-methyl-1H-indazol-5-yl)-3″,6″-dihydro-7″H-dispiro[azetidine-3,1′-cyclobutane-3′,8″-dipyrrolo[2,3-b:3′,2′-d]pyridin]-7″-one, trifluoroacetate salt], the IC50 in experiment [1] was not above 100 nM; in experiment [2], not above 100 nM; in experiment [3], 1250 to 2500 nM; in experiment [4], 1250 to 2500 nM.

(Values after patent US11958861B2, “Spirocyclic lactams as JAK2 V617F inhibitors” (Incyte Corporation, priority 2021, dated 2024).)
